Results published in patent US20110009379A1, “INDOLINONE COMPOUND” (ASTELLAS PHARMA INC., priority 2008, published 2011).

Columns and labels:
gastric emptying of rats = assay: Activity to gastric emptying of TRPA1 agonist (phenol red, rats); assay type: in vivo; details: Rattus norvegicus; male wistar rats, oral administration, versus control animals; read-out: ED50 (amount which suppresses 50% of gastric emptying)
Excerpt: When EC cell is stimulated by content of a gastrointestinal tract, 5-HT is secreted. The secreted 5-HT promotes the secretion or motility through a 5-HT receptor present in intestinal nerve plexus or gastrointestinal smooth muscle. The secreted 5-HT is instantly taken into a cell by its specific transporter, and is metabolized by […]. Thus, while it is considerably difficult to directly measure the secreted 5-HT concentration, it has been known that gastric emptying is delayed as a physiological activity through 5-HT in rodents. In order to verify in vivo activity through 5-HT of the compound to be tested, activity to gastric emptying of rats by various TRPA1 agonists was studied.
In the experiment, male wistar rats (body weight 290 to 360 g) were used. The animals were purchased from Japan SLC (Shizuoka). The animals were allowed to drink water freely under a constitutive environment.
5 minutes after the medicine was orally administered, 0.05% phenol red solution (1.5 mL) was orally administered. After 15 minutes, rats were put painlessly to death by cervical vertebral dislocation, their stomachs were exenterated, and phenol red was eluted with 0.1M aqueous NaOH solution (5 mL) from the exenterated stomachs. 20% aqueous trichloroacetic acid solution (0.1 mL) was added to the NaOH solution (0.5 mL), followed by stirring and centrifugation at 15,000 rpm, at 4° C., for 10 minutes. 0.5M aqueous NaOH solution (0.2 mL) was added to the supernatant (0.05 mL), followed by stirring, and absorbance at 560 nm was measured using an absorption spectrometer (spectrometer spectramax M2; Molecular Devices, CA, USA).
A gastric emptying was calculated by the following calculating formula.
Gastric emptying (%)=100−(A/B)×100
A: amount of phenol red remaining in stomach
B: amount of phenol red remaining in stomach just after administering phenol red
ED50 values (amount of the compound to be tested which suppresses 50% of gastric emptying, with respect to the control animals without administering the compound to be tested) of some of the compounds of the formula (I) are shown in Table 2. In this connection, comparative compound 1 and comparative compound 2 are (3E)-1-methyl-3-(2-oxopropyridene)-1,3-dihydro-2H-indol-2-one, and (3E)-3-(2-oxopropyridene)-1-prop-2-in-1-yl-1,3-dihydro-2H-indol-2-one described in Non Patent Document 4 above, and has the following chemical structures, respectively.

Row | SMILES | melting point [°C] | ED50 (gastric emptying of rats) [mg/kg]
1 | O=C(/C=C1/C(=O)N(CC2CCCC2)c2c(F)cccc21)N1CCOCC1 [Example 40] | – | 0.59
2 | C#CCN1C(=O)/C(=C/C(C)=O)c2ccccc21 [comparative compound 2, (3E)-3-(2-oxopropyridene)-1-prop-2-in-1-yl-1,3-dihydro-2H-indol-2-one, reference compound] | – | 8.8
3 | COc1cccc(CN2C(=O)/C(=C/C(=O)O)c3cccc(Cl)c32)c1 [Example 39] | – | 0.24
4 | O=C(/C=C1/C(=O)N(CC2CCCC2)c2c(F)cccc21)N1CCCC1 [Example 30] | – | 0.42
5 | CN(C)C(=O)/C=C1/C(=O)N(CC2CCCCC2)c2ccccc21 [Example 59, (2E)-2-[1-(cyclohexylmethyl)-2-oxo-1,2-dihydro-3H-indol-3-ylidene]-N,N-dimethylacetamide] | 80 to 82 | –
6 | NC(=O)/C=C1/C(=O)N(Cc2ccccc2)c2ccccc21 [Example 20] | – | 4.4
7 | O=C(/C=C1/C(=O)N(CC2CCCCC2)c2ccccc21)N1CCC1 [Example 61, (3E)-3-(2-azetidin-1-yl-2-oxoethylidene)-1-(cyclohexylmethyl)-1,3-dihydro-2H-indol-2-one] | 163 to 165 | –
8 | O=C(O)/C=C1/C(=O)N(Cc2ccccc2)c2c(F)cccc21 [Example 18, (2E)-(1-benzyl-7-fluoro-2-oxo-1,2-dihydro-3H-indol-3-ylidene)acetic acid] | 168 to 170 | 3.6
9 | CC(C)(C)CN1C(=O)/C(=C/C(=O)O)c2ccccc21 [Example 25] | – | 0.31
10 | CCC(CC)CN1C(=O)/C(=C/C(=O)O)c2cccc(F)c21 [Example 36] | – | 0.069

Now from value to compound, other results behind:

Row | melting point [°C] | SMILES | ED50 (gastric emptying of rats) [mg/kg]
11 | 71 to 73 | CCC(CC)CN1C(=O)/C(=C/C(=O)N2CCCC2)c2ccccc21 [Example 64, (3E)-1-(2-ethylbutyl)-3-(2-oxo-2-pyrrolidin-1-ylethylidene)-1,3-dihydro-2H-indol-2-one] | –
12 | 116 to 118 | CCC(CC)CN1C(=O)/C(=C/C(=O)N2CCC2)c2ccccc21 [Example 65, (3E)-3-(2-azetidin-1-yl-2-oxoethylidene)-1-(2-ethylbutyl)-1,3-dihydro-2H-indol-2-one] | –
13 | 147 to 149 | CCC(CC)CN1C(=O)/C(=C/C(=O)O)c2ccccc21 [Example 63, (2E)-[1-(2-ethylbutyl)-2-oxo-1,2-dihydro-3H-indol-3-ylidene]acetic acid] | –
14 | 111 to 113 | O=C(/C=C1/C(=O)N(CC2CCCC2)c2ccccc21)N1CCC1 [Example 62, (3E)-3-(2-azetidin-1-yl-2-oxoethylidene)-1-(cyclopentylmethyl)-1,3-dihydro-2H-indol-2-one] | –
15 | 108 to 110 | O=C(/C=C1/C(=O)N(CC2CCC2)c2ccccc21)N1CCCC1 [Example 67, (3E)-1-(cyclobutylmethyl)-3-(2-oxo-2-pyrrolidin-1-ylethylidene)-1,3-dihydro-2H-indol-2-one] | –
16 | 133 to 135 | O=C(/C=C1/C(=O)N(CC2CCC2)c2ccccc21)N1CCC1 [Example 66, (3E)-3-(2-azetidin-1-yl-2-oxoethylidene)-1-(cyclobutylmethyl)-1,3-dihydro-2H-indol-2-one] | –
